From publication PMC3935456 (Journal of biomolecular screening, 2011)

Key:
[1] = molecular target: T1, LIM kinase 1 (LIMK1) (Homo sapiens, UniProt P53667); assay: Kinase Glo luciferase ATP-depletion assay with recombinant cofilin, […] ATP; format: biochemical
[2] = molecular target: T1, LIM kinase 1 (LIMK1); assay: apparent Km determination in luciferase ATP-depletion kinase assay with cofilin; format: biochemical

T1 sequence (P53667 339-604 limits assumed): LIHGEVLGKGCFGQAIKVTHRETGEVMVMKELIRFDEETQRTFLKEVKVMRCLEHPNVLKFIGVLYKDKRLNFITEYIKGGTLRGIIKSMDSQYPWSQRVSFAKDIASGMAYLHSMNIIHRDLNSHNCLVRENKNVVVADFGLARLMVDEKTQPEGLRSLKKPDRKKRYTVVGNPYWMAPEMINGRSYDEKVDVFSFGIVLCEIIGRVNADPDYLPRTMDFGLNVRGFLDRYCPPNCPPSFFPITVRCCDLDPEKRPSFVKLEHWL

SMILES: COc1c(C=O)c(O)cc2c1C(=O)c1ccccc1C2=O [damnacanthal]
- IC50 [1]: 19 nM

SMILES: Nc1ncnc2c1ncn2[C@@H]1O[C@H](COP(=O)(O)OP(=O)(O)OP(=O)(O)O)[C@@H](O)[C@H]1O [ATP]
- Km [2]: 10 to 20 µM
